From ChEMBL document CHEMBL2021885, “Triphenylbutanamines: kinesin spindle protein inhibitors with in vivo antitumor activity” (J Med Chem, 2012)
Activity calls are given as the source filed them. No cut-off for these calls is given here.

Columns and labels:
[1] = molecular target: T1, Kinesin heavy chain isoform 5A (Homo sapiens) (UniProt Q12840); assay: Inhibition of Kif5a ATPase activity
T1 sequence (whole entry): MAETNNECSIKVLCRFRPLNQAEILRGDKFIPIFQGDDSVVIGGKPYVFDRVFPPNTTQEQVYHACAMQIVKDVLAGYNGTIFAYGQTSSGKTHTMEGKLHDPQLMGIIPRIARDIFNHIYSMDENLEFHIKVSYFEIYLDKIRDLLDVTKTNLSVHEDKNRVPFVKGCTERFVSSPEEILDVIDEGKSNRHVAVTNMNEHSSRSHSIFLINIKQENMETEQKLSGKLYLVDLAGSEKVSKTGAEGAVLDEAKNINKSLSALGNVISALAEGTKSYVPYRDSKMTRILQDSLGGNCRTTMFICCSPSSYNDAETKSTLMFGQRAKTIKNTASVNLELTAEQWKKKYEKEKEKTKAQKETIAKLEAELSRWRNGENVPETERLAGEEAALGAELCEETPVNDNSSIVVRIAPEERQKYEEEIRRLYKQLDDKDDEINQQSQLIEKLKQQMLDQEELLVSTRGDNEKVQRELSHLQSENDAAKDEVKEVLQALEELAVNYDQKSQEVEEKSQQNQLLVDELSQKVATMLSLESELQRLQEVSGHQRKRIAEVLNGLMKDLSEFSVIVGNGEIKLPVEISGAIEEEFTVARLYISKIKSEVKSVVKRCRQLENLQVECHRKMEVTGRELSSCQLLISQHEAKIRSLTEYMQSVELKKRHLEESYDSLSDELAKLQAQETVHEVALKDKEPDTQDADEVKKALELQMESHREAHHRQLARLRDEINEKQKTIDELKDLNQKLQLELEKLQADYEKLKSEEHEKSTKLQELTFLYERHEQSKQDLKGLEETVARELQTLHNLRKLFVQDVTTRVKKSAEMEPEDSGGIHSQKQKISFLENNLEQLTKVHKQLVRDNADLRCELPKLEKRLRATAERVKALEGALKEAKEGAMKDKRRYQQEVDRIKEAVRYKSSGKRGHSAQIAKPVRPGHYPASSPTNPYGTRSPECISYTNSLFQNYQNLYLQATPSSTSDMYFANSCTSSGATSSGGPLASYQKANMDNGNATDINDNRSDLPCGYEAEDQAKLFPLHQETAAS

[2] = molecular target: T1, Kinesin heavy chain isoform 5A (Homo sapiens); assay: Inhibition of MT-stimulated Kif5a ATPase activity
[3] = molecular target: T2, Kinesin-like protein KIF7 (Homo sapiens) (UniProt Q2M1P5); assay: Inhibition of Kif7 ATPase activity
T2 sequence (whole entry): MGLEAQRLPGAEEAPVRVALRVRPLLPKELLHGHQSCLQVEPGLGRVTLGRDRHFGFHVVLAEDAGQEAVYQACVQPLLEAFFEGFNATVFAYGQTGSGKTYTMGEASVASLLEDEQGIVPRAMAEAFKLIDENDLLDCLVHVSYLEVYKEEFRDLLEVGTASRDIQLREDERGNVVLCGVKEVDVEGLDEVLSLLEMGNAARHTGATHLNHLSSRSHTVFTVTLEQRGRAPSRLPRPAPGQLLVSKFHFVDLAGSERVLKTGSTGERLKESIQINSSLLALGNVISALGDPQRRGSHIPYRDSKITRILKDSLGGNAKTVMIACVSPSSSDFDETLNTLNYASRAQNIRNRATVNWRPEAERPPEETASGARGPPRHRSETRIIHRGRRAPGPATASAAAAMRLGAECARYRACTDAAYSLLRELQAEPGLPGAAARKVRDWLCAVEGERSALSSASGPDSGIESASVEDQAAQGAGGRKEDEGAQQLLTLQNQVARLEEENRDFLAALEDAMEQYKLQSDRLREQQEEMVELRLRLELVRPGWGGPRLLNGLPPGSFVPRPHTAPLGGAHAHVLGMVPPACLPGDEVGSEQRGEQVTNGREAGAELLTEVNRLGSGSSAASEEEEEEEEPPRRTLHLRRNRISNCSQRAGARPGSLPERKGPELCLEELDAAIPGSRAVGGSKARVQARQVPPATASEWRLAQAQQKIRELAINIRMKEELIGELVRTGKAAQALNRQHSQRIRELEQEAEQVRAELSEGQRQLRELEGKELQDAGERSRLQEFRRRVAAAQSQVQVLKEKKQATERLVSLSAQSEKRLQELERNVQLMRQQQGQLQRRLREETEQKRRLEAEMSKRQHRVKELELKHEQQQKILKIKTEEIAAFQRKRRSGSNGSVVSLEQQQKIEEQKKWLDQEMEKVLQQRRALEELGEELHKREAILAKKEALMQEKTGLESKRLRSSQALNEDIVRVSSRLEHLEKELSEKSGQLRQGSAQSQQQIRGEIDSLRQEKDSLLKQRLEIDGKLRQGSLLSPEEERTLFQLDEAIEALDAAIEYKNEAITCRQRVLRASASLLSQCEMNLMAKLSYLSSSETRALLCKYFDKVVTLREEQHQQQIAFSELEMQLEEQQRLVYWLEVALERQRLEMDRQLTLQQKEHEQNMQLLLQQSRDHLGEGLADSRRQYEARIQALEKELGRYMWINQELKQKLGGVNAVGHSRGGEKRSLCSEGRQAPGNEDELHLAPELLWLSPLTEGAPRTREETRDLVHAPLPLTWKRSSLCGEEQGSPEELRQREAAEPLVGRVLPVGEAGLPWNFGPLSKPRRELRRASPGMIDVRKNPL

[4] = molecular target: Kinesin-like protein KIF20B (Homo sapiens) (UniProt Q96Q89); assay: Inhibition of MPP1 ATPase activity
Kinesin-like protein KIF20B (Homo sapiens), sequence (Q96Q89 whole entry): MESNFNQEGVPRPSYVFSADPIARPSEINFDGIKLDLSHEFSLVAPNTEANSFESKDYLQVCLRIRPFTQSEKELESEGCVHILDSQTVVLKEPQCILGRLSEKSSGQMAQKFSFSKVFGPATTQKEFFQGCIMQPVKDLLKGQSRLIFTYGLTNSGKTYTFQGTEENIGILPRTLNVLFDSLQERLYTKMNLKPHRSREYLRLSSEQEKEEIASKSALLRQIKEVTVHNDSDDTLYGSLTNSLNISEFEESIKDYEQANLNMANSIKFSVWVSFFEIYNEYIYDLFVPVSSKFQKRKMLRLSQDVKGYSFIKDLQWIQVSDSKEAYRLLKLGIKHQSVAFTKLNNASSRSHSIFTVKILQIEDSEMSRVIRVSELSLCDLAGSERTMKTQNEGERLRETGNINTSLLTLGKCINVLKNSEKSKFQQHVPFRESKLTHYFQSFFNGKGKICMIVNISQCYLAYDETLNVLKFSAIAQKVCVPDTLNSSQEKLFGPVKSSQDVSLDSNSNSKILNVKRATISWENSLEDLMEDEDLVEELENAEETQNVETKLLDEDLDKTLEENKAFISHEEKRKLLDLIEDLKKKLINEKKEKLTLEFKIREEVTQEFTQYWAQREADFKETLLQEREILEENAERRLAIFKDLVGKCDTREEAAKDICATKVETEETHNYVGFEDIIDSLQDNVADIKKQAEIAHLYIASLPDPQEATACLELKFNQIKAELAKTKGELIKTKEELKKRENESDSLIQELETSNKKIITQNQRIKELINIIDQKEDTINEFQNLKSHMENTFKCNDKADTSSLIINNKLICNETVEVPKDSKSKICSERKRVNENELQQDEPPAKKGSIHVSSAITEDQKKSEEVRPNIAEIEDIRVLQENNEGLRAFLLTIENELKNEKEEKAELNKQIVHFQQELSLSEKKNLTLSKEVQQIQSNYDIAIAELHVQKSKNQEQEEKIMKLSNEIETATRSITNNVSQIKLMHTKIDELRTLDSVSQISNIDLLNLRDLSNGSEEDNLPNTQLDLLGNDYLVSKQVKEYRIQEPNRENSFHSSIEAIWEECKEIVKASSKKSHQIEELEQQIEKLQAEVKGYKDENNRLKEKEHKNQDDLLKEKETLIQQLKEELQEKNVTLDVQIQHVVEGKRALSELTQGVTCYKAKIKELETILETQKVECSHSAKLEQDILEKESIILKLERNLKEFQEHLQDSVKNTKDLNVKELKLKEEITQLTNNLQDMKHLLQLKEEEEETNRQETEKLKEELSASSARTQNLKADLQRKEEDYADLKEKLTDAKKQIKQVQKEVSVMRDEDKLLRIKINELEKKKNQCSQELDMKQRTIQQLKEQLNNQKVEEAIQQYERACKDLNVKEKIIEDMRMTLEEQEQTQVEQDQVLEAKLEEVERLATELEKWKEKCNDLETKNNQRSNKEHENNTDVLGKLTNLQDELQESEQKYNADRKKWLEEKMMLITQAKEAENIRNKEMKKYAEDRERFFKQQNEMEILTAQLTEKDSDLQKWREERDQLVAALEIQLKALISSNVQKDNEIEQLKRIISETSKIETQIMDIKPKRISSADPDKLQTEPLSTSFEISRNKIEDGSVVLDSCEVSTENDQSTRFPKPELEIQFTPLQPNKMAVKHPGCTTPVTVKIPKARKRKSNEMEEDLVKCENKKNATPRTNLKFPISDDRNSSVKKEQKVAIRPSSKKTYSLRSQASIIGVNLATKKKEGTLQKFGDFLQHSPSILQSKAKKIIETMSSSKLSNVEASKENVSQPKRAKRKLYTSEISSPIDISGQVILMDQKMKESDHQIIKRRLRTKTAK

[5] = molecular target: Kinesin-like protein KIF20B (Homo sapiens) (UniProt Q96Q89); assay: Inhibition of MT-stimulated MPP1 ATPase activity
[6] = molecular target: Centromere-associated protein E (Homo sapiens) (UniProt Q02224); assay: Inhibition of CENP-E ATPase activity
Centromere-associated protein E (Homo sapiens), sequence (Q02224 whole entry): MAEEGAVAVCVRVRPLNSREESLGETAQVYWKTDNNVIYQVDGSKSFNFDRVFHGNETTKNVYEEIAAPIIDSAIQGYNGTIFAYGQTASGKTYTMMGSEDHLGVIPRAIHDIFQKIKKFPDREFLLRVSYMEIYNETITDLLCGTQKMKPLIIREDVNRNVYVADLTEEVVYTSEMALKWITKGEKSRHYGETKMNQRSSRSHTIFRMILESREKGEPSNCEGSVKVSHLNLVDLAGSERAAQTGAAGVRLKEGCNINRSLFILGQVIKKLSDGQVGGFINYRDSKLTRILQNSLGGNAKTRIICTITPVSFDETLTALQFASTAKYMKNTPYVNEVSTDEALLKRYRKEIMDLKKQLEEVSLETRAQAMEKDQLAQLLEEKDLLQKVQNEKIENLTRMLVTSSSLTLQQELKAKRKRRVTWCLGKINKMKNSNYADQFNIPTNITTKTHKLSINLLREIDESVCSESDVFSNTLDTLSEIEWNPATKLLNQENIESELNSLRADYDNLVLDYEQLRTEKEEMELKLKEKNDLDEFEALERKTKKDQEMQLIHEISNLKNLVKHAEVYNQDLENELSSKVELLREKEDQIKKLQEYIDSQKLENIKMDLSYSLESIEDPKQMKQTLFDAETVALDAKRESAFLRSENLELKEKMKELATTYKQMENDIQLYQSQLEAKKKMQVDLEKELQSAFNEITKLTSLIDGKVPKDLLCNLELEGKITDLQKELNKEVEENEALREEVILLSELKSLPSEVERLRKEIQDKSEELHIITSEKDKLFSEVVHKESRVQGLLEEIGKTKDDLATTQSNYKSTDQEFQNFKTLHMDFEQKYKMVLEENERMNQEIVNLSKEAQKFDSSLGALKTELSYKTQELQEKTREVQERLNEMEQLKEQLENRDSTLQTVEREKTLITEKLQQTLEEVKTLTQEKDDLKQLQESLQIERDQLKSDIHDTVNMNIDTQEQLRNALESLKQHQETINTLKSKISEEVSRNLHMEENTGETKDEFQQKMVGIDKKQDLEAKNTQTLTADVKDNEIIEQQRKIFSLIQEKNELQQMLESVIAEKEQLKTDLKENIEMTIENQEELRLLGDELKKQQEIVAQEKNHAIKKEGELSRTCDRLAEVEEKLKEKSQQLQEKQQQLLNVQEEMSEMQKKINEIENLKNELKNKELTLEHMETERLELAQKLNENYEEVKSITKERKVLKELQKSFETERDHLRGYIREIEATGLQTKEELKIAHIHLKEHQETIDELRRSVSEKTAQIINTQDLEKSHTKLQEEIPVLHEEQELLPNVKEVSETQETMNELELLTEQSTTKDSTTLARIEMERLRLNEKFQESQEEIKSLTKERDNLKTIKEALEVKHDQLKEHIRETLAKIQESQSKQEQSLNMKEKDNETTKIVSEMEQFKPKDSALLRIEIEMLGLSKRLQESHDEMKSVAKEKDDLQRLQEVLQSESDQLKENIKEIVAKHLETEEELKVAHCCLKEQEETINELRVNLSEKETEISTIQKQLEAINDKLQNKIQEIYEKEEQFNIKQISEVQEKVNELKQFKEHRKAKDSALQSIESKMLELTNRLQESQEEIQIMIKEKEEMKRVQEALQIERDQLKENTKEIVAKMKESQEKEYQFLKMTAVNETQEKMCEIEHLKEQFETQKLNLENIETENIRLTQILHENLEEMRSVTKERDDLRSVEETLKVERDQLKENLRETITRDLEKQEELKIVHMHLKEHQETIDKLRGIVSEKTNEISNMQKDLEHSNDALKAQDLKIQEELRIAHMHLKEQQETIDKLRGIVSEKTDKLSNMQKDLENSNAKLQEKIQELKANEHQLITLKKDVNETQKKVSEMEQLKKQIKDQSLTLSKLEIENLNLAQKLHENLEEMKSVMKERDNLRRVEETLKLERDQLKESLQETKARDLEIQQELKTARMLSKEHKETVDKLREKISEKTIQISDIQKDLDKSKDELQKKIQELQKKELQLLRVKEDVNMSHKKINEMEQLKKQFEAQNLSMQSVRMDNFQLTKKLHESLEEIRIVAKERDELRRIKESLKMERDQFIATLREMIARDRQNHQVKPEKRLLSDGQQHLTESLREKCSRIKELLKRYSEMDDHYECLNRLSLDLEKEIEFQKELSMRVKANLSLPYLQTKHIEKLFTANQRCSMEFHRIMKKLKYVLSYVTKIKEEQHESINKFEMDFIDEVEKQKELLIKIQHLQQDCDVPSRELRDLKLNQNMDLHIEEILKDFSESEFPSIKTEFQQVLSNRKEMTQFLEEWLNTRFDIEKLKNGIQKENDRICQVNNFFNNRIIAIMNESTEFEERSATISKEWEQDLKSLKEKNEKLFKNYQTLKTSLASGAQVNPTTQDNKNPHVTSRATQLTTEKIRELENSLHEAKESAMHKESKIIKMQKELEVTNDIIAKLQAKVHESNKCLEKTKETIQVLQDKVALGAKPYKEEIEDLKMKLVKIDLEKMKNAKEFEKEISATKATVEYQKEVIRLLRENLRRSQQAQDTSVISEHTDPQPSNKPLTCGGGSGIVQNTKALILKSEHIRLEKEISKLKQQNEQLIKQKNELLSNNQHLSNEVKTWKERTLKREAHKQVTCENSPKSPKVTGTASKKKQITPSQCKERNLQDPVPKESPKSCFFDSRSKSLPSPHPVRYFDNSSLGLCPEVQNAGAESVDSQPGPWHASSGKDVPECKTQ

[7] = molecular target: Centromere-associated protein E (Homo sapiens) (UniProt Q02224); assay: Inhibition of MT-stimulated CENP-E ATPase activity
[8] = Distribution coefficient, log D of the compound at pH 7.4; type: physicochemical; conditions: octanol/water, read-out: logD
[9] = Antitumor activity against human LXFS 538 cells xenografted in nu/nu nude Charles river mouse assessed as tumor volume doubling time at 20 mg/kg on days 0, 2 and 4 and 15 mg/kg on days 17, 19, 24 measured after 28 days (reference value: 8.8 days); type: functional

## Cc1cccc(C(CCC(N)C(=O)O)(c2ccccc2)c2ccccc2)c1 (racemic)
[1]
  inhibition: inactive
[2]
  inhibition: inactive
[3]
  inhibition: inactive
[4]
  inhibition: inactive
[5]
  inhibition: inactive
[6]
  inhibition: inactive
[7]
  inhibition: inactive
[8]
  logD: 2.45
[9]
  Time: 28.7 days
